# Target: T1, GCS (Canis lupus familiaris, UniProt A0A8I3MXG6)
# T1 sequence (A0A8I3MXG6 1-394): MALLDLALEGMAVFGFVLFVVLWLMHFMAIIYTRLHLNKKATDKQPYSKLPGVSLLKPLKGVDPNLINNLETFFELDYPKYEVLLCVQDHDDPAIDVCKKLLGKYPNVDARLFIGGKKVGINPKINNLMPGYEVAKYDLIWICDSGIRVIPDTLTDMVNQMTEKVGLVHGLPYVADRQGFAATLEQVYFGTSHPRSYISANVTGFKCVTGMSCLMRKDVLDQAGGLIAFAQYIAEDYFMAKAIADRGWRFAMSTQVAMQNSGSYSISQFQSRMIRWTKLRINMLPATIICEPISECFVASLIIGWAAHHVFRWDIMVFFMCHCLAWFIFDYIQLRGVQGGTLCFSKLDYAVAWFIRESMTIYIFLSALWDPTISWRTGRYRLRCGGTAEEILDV
# Assay: Assay 1: GCS Enzymatic Assay (MDCK cell lysate, C6-NBD-Ceramide, LC/MS)
# Assay type: biochemical, canine
# Conditions: Table 2; data without asterisk; read-out: IC50 (nM) generated from Assay 1
# How it was run: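 LC/MS/MS measurement of glucosylceramide and NBD-ceramide after a 1 h, 37 °C reaction with 100 μM UDP-glucose and 10 μM C6-NBD-ceramide gave IC50s or percent inhibition.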
row,SMILES,IC50 [nM]
1,"O=C(N[C@H](CN1CCCC1)[C@H](O)c1cc(F)c2c(c1)OCCO2)C(=O)c1ccc(-c2ccc(Cl)cc2)cc1 [Example 272, 2-(4′-chloro-[1,1′-biphenyl]-4-yl)-N-((1R,2R)-1-(8-fluoro-2,3-dihydrobenzo[b][1,4]dioxin-6-yl)-1-hydroxy-3-(pyrrolidin-1-yl)propan-2-yl)-2-oxoacetamide]",< 50
2,"O=C(N[C@H](CN1CCCC1)[C@H](O)c1cc(F)c2c(c1)OCCO2)C(=O)c1ccc(N2CCCC2)cc1 [Example 273, N-((1R,2R)-1-(8-fluoro-2,3-dihydrobenzo[b][1,4]dioxin-6-yl)-1-hydroxy-3-(pyrrolidin-1-yl)propan-2-yl)-2-oxo-2-(4-(pyrrolidin-1-yl)phenyl)acetamide]",< 50
3,"O=C(N[C@H](CN1CCCC1)[C@H](O)c1cc(F)c2c(c1)OCCO2)C(=O)c1ccc(-c2ccc3c(cnn3C3CC3)c2)cc1 [Example 275, 2-(4-(1-cyclopropyl-1H-indazol-5-yl)phenyl)-N-((1R,2R)-1-(8-fluoro-2,3-dihydrobenzo[b][1,4]dioxin-6-yl)-1-hydroxy-3-(pyrrolidin-1-yl)propan-2-yl)-2-oxoacetamide]",< 50
4,"O=C(N[C@H](CN1CCC1)[C@H](O)c1cc(F)c2c(c1)OCCO2)C(=O)c1ccc(-c2ccc3c(cnn3C3CC3)c2)cc1 [Example 278, N-((1R,2R)-3-(azetidin-1-yl)-1-(8-fluoro-2,3-dihydrobenzo[b][1,4]dioxin-6-yl)-1-hydroxypropan-2-yl)-2-(4-(1-cyclopropyl-1H-indazol-5-yl)phenyl)-2-oxoacetamide]",< 50
5,"O=C(N[C@H](CN1CCCC1)[C@H](O)c1cc(F)c2c(c1)OCCO2)C(=O)c1ccc(-c2ccc3cnoc3c2)cc1 [Example 280, 2-(4-(benzo[d]isoxazol-6-yl)phenyl)-N-((1R,2R)-1-(8-fluoro-2,3-dihydrobenzo[b][1,4]dioxin-6-yl)-1-hydroxy-3-(pyrrolidin-1-yl)propan-2-yl)-2-oxoacetamide]",< 50
6,"O=C(N[C@H](CN1CCCC1)[C@H](O)c1cc2c(c(C(F)(F)F)c1)OCCO2)C(=O)c1ccc(-c2ccc(F)cc2)cc1 [Example 286, 2-(4′-fluoro-[1,1′-biphenyl]-4-yl)-N-((1R,2R)-1-hydroxy-3-(pyrrolidin-1-yl)-1-(8-(trifluoromethyl)-2,3-dihydrobenzo[b][1,4]dioxin-6-yl)propan-2-yl)-2-oxoacetamide]",50 to 5000
7,"O=C(N[C@H](CN1CCCC1)[C@H](O)c1cc(F)c2c(c1)OCCO2)C(=O)c1ccc2c(cnn2Cc2ccc(F)cc2)c1 [Example 289, N-((1R,2R)-1-(8-fluoro-2,3-dihydrobenzo[b][1,4]dioxin-6-yl)-1-hydroxy-3-(pyrrolidin-1-yl)propan-2-yl)-2-(1-(4-fluorobenzyl)-1H-indazol-5-yl)-2-oxoacetamide]",< 50

# Results, then the compound that gave them:
row,IC50 [nM],SMILES
1,< 50,"O=C(N[C@H](CN1CCCC1)[C@H](O)c1ccc(OC2CC2)c(Cl)c1)C(=O)c1ccc(-c2ccc(C(F)(F)F)cc2)cc1 [Example 274, N-((1R,2R)-1-(3-chloro-4-cyclopropoxyphenyl)-1-hydroxy-3-(pyrrolidin-1-yl)propan-2-yl)-2-oxo-2-(4′-(trifluoromethyl)-[1,1′-biphenyl]-4-yl)acetamide]"
2,< 50,"O=C(N[C@H](CN1CCCC1)[C@H](O)c1cc(Cl)c2c(c1)OCCO2)C(=O)c1ccc(-c2ccc3c(cnn3C3CC3)c2)cc1 [Example 276, N-((1R,2R)-1-(8-chloro-2,3-dihydrobenzo[b][1,4]dioxin-6-yl)-1-hydroxy-3-(pyrrolidin-1-yl)propan-2-yl)-2-(4-(1-cyclopropyl-1H-indazol-5-yl)phenyl)-2-oxoacetamide]"
3,< 50,"O=C(N[C@H](CN1CCCC1)[C@H](O)c1ccc(OC2CC2)c(Cl)c1)C(=O)c1ccc(-c2ccc3c(cnn3C3CC3)c2)cc1 [Example 277, N-((1R,2R)-1-(3-chloro-4-cyclopropoxyphenyl)-1-hydroxy-3-(pyrrolidin-1-yl)propan-2-yl)-2-(4-(1-cyclopropyl-1H-indazol-5-yl)phenyl)-2-oxoacetamide]"
4,< 50,"Cn1ncc2cc(-c3ccc(C(=O)C(=O)N[C@H](CN4CCC4)[C@H](O)c4ccc(OC5CC5)c(Cl)c4)cc3)ccc21 [Example 279, N-((1R,2R)-3-(azetidin-1-yl)-1-(3-chloro-4-cyclopropoxyphenyl)-1-hydroxypropan-2-yl)-2-(4-(1-methyl-1H-indazol-5-yl)phenyl)-2-oxoacetamide]"
5,< 50,"O=C(N[C@H](CN1CCCC1)[C@H](O)c1ccc(OC2CC2)c(Cl)c1)C(=O)c1ccc(-c2ccc3cnn(C4CC4)c3c2)cc1 [Example 281, N-((1R,2R)-1-(3-chloro-4-cyclopropoxyphenyl)-1-hydroxy-3-(pyrrolidin-1-yl)propan-2-yl)-2-(4-(1-cyclopropyl-1H-indazol-6-yl)phenyl)-2-oxoacetamide]"
6,< 50,"O=C(N[C@H](CN1CCCC1)[C@H](O)c1cc(F)c2c(c1)OCCO2)C(=O)c1ccc(-c2ccc3cnn(C4CC4)c3c2)cc1 [Example 282, 2-(4-(1-cyclopropyl-1H-indazol-6-yl)phenyl)-N-((1R,2R)-1-(8-fluoro-2,3-dihydrobenzo[b][1,4]dioxin-6-yl)-1-hydroxy-3-(pyrrolidin-1-yl)propan-2-yl)-2-oxoacetamide]"
7,< 50,"O=C(N[C@H](CN1CCC1)[C@H](O)c1cc(F)c2c(c1)OCCO2)C(=O)c1ccc(-c2ccc3cnn(C4CC4)c3c2)cc1 [Example 283, N-((1R,2R)-3-(azetidin-1-yl)-1-(8-fluoro-2,3-dihydrobenzo[b][1,4]dioxin-6-yl)-1-hydroxypropan-2-yl)-2-(4-(1-cyclopropyl-1H-indazol-6-yl)phenyl)-2-oxoacetamide]"
8,< 50,"O=C(N[C@H](CN1CCCC1)[C@H](O)c1ccc(OC2CC2)c(Cl)c1)C(=O)c1ccc(-c2ccc3cn(C4CC4)nc3c2)cc1 [Example 284, N-((1R,2R)-1-(3-chloro-4-cyclopropoxyphenyl)-1-hydroxy-3-(pyrrolidin-1-yl)propan-2-yl)-2-(4-(2-cyclopropyl-2H-indazol-6-yl)phenyl)-2-oxoacetamide]"
9,< 50,"O=C(N[C@H](CN1CCC1)[C@H](O)c1cc(Cl)c2c(c1)OCCO2)C(=O)c1ccc(-c2ccc3c(cnn3C3CC3)c2)cc1 [Example 285, N-((1R,2R)-3-(azetidin-1-yl)-1-(8-chloro-2,3-dihydrobenzo[b][1,4]dioxin-6-yl)-1-hydroxypropan-2-yl)-2-(4-(1-cyclopropyl-1H-indazol-5-yl)phenyl)-2-oxoacetamide]"
10,< 50,"O=C(N[C@H](CN1CCCC1)[C@H](O)c1ccc(OC2CC2)c(Cl)c1)C(=O)c1ccc(-c2ccc(F)cc2)nc1 [Example 287, N-((1R,2R)-1-(3-chloro-4-cyclopropoxyphenyl)-1-hydroxy-3-(pyrrolidin-1-yl)propan-2-yl)-2-(6-(4-fluorophenyl)pyridin-3-yl)-2-oxoacetamide]"
11,< 50,"O=C(N[C@H](CN1CCCC1)[C@H](O)c1ccc(OC2CC2)c(Cl)c1)C(=O)c1ccc2c(cnn2Cc2ccc(F)cc2)c1 [Example 288, N-((1R,2R)-1-(3-chloro-4-cyclopropoxyphenyl)-1-hydroxy-3-(pyrrolidin-1-yl)propan-2-yl)-2-(1-(4-fluorobenzyl)-1H-indazol-5-yl)-2-oxoacetamide]"

# Reference: patent publication US10227323B2, “Glucosylceramide synthase inhibitors for the treatment of diseases” (BIOMARIN PHARMACEUTICAL INC., priority 2013, dated 2019)
